Data on two compounds can be found in patent US12565473B2, “Coating composition” (priority 2020, dated 2026).

Data set [1] concerns mouse embryonic stem (mES) reporter cell lines. The following applies: Bscl2 and Rtkn, absence and presence of S9.
In the next data set the test system is Bscl2. Kind of data set: ToxTracker genotoxicity assay, Bscl2-GFP reporter induction.
A further data set concerns Rtkn. Kind of data set: ToxTracker genotoxicity assay, Rtkn-GFP reporter induction.
Setting [2] is: with S9 rat liver extract, 3 h exposure and 24 h recovery, at 10% cytotoxicity.
The mark [3] stands for this setting: with S9 rat liver extract, 3 h exposure and 24 h recovery, at 25% cytotoxicity.
Where [4] appears, read: with S9 rat liver extract, 3 h exposure and 24 h recovery, at 50% cytotoxicity.
The mark [5] stands for this setting: without S9 rat liver extract, 24 h exposure, at 10% cytotoxicity.
The mark [6] stands for this setting: without S9 rat liver extract, 24 h exposure, at 25% cytotoxicity.
Setting [7] is: without S9 rat liver extract, 24 h exposure, at 50% cytotoxicity.

With `CCCCOCC(CN1CC1C)OC(=O)NCCCCCCn1c(=O)n(CCCCCCNC(=O)OC(COCCCC)CN2CC2C)c(=O)n(CCCCCCNC(=O)OC(COCCCC)CN2CC2C)c1=O` (centres unmarked) [Composition 1], the “Genotoxicity test result (overall conclusion)” value in data set [1] is “non-genotoxic”. In addition, the “Bscl 2 GFP reporter induction level” value came to 1.0 in the data set with Bscl2 (setting [2]); 1.0 in the data set with Bscl2 (setting [3]); 0.9 in the data set on Bscl2 (setting [4]); 1.1 with Bscl2 (setting [5]); 1.1 in the data set on Bscl2 (setting [6]); 1.1 in the data set with Bscl2 (setting [7]). In addition, the “Rtkn GFP reporter induction level” value in the data set with Rtkn (setting [2]) amounted to 0.9; in the data set on Rtkn (setting [3]) it was 0.8; in the data set on Rtkn (setting [4]), 0.6; with Rtkn (setting [5]), 0.8; with Rtkn (setting [6]) it was 0.8; in the data set on Rtkn (setting [7]), 0.6.

Turning to `CCCCOCC(CN1CC1C)OC(=O)NCCCCCCn1c(=O)n(CCCCCCNC(=O)OC(COCCCC)CN2CC2C)c(=O)n(CCCCCCNC(=O)OC(COCCCC)CN2CC2C)c1=O` (centres unmarked) [Composition 21], the “Genotoxicity test result (overall conclusion)” value in data set [1] is given as “non-genotoxic”. The “Bscl 2 GFP reporter induction level” value with Bscl2 (setting [2]) is 1.0; in the data set on Bscl2 (setting [3]) it was 0.9; in the data set on Bscl2 (setting [4]) it was 0.7; in the data set with Bscl2 (setting [5]), 1.1; in the data set with Bscl2 (setting [6]) it was 1.1; in the data set on Bscl2 (setting [7]), 0.9. Besides, the “Rtkn GFP reporter induction level” value in the data set with Rtkn (setting [2]) was determined as 1.1; with Rtkn (setting [3]), 1.0; with Rtkn (setting [4]) it was 0.9; in the data set on Rtkn (setting [5]), 1.1; in the data set on Rtkn (setting [6]), 1.0; in the data set on Rtkn (setting [7]) it was 0.9.
